Assays:
bedstraw = experiment: Test B pre/postemergence bedstraw; format: in vivo, Galium aparine
Method in brief: (§1)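 Response is a visual 0-to-10 score relative to untreated plants, where 0 means no effect and 10 means complete control, taken twelve to sixteen days after application. Treatments went onto soil at planting and onto foliage of 1- to 4-leaf plants, using a surfactant-containing non-phytotoxic solvent.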

blackgrass = experiment: Test B pre/postemergence blackgrass; format: in vivo, Alopecurus myosuroides
Method in brief: as §1

surinam grass = experiment: Test B pre/postemergence surinam grass; format: in vivo, Brachiaria decumbens
Method in brief: as §1

cocklebur = experiment: Test B pre/postemergence cocklebur; format: in vivo, Xanthium strumarium
Method in brief: as §1

corn = experiment: Test B pre/postemergence corn; format: in vivo, Zea mays
Method in brief: as §1

crabgrass = experiment: Test B pre/postemergence crabgrass; format: in vivo, Digitaria sanguinalis
Method in brief: as §1

giant foxtail = experiment: Test B pre/postemergence giant foxtail; format: in vivo, Setaria faberii
Method in brief: as §1

morningglory = experiment: Test B pre/postemergence morningglory; format: in vivo, Ipomoea hederacea
Method in brief: as §1

pigweed = experiment: Test B pre/postemergence pigweed; format: in vivo, Amaranthus retroflexus
Method in brief: as §1

soybean = experiment: Test B pre/postemergence soybean; format: in vivo, Glycine max
Method in brief: as §1

sugar beet = experiment: Test B pre/postemergence sugar beet; format: in vivo, Beta vulgaris
Method in brief: as §1

wild oat = experiment: Test B pre/postemergence wild oat; format: in vivo, Avena fatua
Method in brief: as §1

purple nutsedge = experiment: Test B pre/postemergence purple nutsedge; format: in vivo, Cyperus rotundus; settings: Preemergence
Method in brief: as §1

rice = experiment: Test B flood test rice; format: in vivo, Oryza sativa
Method in brief: (§2)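 Each value is a visual injury score relative to controls, with 10 meaning complete control and 0 no effect. Evaluation took place twelve to sixteen days after the 2-leaf-stage plants were treated and kept in the greenhouse.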

smallflower flatsedge = experiment: Test B flood test smallflower flatsedge; format: in vivo, Cyperus difformis
Method in brief: as §2

duck salad = experiment: Test B flood test duck salad; format: in vivo, Heteranthera limosa
Method in brief: as §2

[1] = Postemergence, Rate 250 g/ha, scale 0 to 10, 0 no effect, 10 complete control
[2] = Postemergence, Rate 1000 g/ha, scale 0 to 10 (0 no effect, 10 complete control)
[3] = Preemergence, Rate 125 g/ha, scale 0 to 10 (0 no effect, 10 complete control)
[4] = Preemergence, Rate 250 g/ha, scale of 0 to 10 where 0 is no effect and 10 is complete control
[5] = Preemergence, Rate 500 g/ha, scale 0 (no effect) to 10 (complete control)
[6] = Rate 125 g/ha, Postemergence, scale 0 to 10, 0 no effect, 10 complete control
[7] = Rate 500 g/ha, Postemergence, 0 to 10 scale (0 no effect, 10 complete control)
[8] = Rate 1000 g/ha, Preemergence, scale 0 to 10 (0 no effect, 10 complete control)
[9] = Rate 125 g/ha, Postemergence section (flood test species), scale 0 to 10, 0 no effect, 10 complete control
[10] = Rate 250 g/ha, headed Pre-emergence (flood test species), scale 0 to 10 (0 no effect, 10 complete control)
[11] = Rate 500 g/ha, Postemergence section of Table B, 0 to 10 scale (0 no effect, 10 complete control)
[12] = Rate 500 g/ha, headed Pre-emergence (flood test species), scale 0 to 10 (0 no effect, 10 complete control)
[13] = Rate 1000 g/ha, Pre-emergence (as headed), scale 0 to 10
[14] = Rate 2000 g/ha, Pre-emergence (as headed), scale 0 to 10
[15] = flood test, listed under Postemergence, Rate 250 g/ha, scale 0 to 10, 0 no effect, 10 complete control

CC(C)N(C(=O)n1oc(=O)n(-c2ccc(Cl)cc2Cl)c1=O)c1ccc(F)cc1 [Compound 7, 4-(2,4-Dichlorophenyl)-N-(4-fluorophenyl)-N-(1-methylethyl)-3,5-dioxo-1,2,4-oxadiazolidine-2-carboxamide]
Bedstraw plant response rating (bedstraw; [1]): 0
Bedstraw plant response rating (bedstraw; [2]): 4
Plant response rating, Bedstraw (bedstraw; [3]): 0
Plant response rating, Bedstraw (bedstraw; [4]): 0
Bedstraw plant response rating (bedstraw; [5]): 0
Bedstraw plant response rating (bedstraw; [6]): 0
Bedstraw plant response rating (bedstraw; [7]): 0
Plant response rating, Bedstraw (bedstraw; [8]): 0
Blackgrass plant response rating (blackgrass; [1]): 2
Blackgrass plant response rating (blackgrass; [2]): 6
Plant response rating, Blackgrass (blackgrass; [3]): 0
Plant response rating, Blackgrass (blackgrass; [4]): 0
Blackgrass plant response rating (blackgrass; [5]): 0
Blackgrass plant response rating (blackgrass; [6]): 0
Blackgrass plant response rating (blackgrass; [7]): 3
Plant response rating, Blackgrass (blackgrass; [8]): 2
B. signalgrass plant response rating (surinam grass; [1]): 0
B. signalgrass plant response rating (surinam grass; [2]): 6
Plant response rating, B. signalgrass (surinam grass; [3]): 0
Plant response rating, B. signalgrass (surinam grass; [4]): 0
B. signalgrass plant response rating (surinam grass; [5]): 0
B. signalgrass plant response rating (surinam grass; [6]): 0
B. signalgrass plant response rating (surinam grass; [7]): 3
Plant response rating, B. signalgrass (surinam grass; [8]): 3
Cocklebur plant response rating (cocklebur; [1]): 0
Cocklebur plant response rating (cocklebur; [2]): 2
Plant response rating, Cocklebur (cocklebur; [4]): 0
Cocklebur plant response rating (cocklebur; [5]): 0
Cocklebur plant response rating (cocklebur; [6]): 0
Cocklebur plant response rating (cocklebur; [7]): 0
Plant response rating, Cocklebur (cocklebur; [8]): 0
Corn plant response rating (corn; [1]): 0
Corn plant response rating (corn; [2]): 0
Plant response rating, Corn (corn; [3]): 0
Plant response rating, Corn (corn; [4]): 0
Corn plant response rating (corn; [5]): 0
Corn plant response rating (corn; [6]): 0
Corn plant response rating (corn; [7]): 0
Plant response rating, Corn (corn; [8]): 0
Crabgrass plant response rating (crabgrass; [1]): 1
Crabgrass plant response rating (crabgrass; [2]): 5
Plant response rating, Crabgrass (crabgrass; [3]): 7
Crabgrass plant response rating (crabgrass; [5]): 8
Crabgrass plant response rating (crabgrass; [6]): 0
Crabgrass plant response rating (crabgrass; [7]): 3
Plant response rating, Crabgrass (crabgrass; [8]): 8
Giant foxtail plant response rating (giant foxtail; [1]): 3
Giant foxtail plant response rating (giant foxtail; [2]): 6
Plant response rating, Giant foxtail (giant foxtail; [3]): 2
Plant response rating, Giant foxtail (giant foxtail; [4]): 5
Giant foxtail plant response rating (giant foxtail; [5]): 8
Giant foxtail plant response rating (giant foxtail; [6]): 0
Giant foxtail plant response rating (giant foxtail; [7]): 5
Plant response rating, Giant foxtail (giant foxtail; [8]): 9
Morningglory plant response rating (morningglory; [2]): 3
Plant response rating, Morningglory (morningglory; [3]): 0
Plant response rating, Morningglory (morningglory; [4]): 0
Morningglory plant response rating (morningglory; [5]): 0
Morningglory plant response rating (morningglory; [6]): 0
Morningglory plant response rating (morningglory; [7]): 0
Plant response rating, Morningglory (morningglory; [8]): 0
Redroot pigweed plant response rating (pigweed; [1]): 0
Redroot pigweed plant response rating (pigweed; [2]): 0
Plant response rating, Redroot pigweed (pigweed; [3]): 0
Plant response rating, Redroot pigweed (pigweed; [4]): 0
Redroot pigweed plant response rating (pigweed; [5]): 0
Redroot pigweed plant response rating (pigweed; [6]): 0
Redroot pigweed plant response rating (pigweed; [7]): 0
Plant response rating, Redroot pigweed (pigweed; [8]): 2
Soybean plant response rating (soybean; [1]): 1
Soybean plant response rating (soybean; [2]): 5
Plant response rating, Soybean (soybean; [3]): 0
Plant response rating, Soybean (soybean; [4]): 0
Soybean plant response rating (soybean; [5]): 0
Soybean plant response rating (soybean; [6]): 0
Plant response rating, Soybean (soybean; [8]): 0
Sugarbeets plant response rating (sugar beet; [1]): 0
Sugarbeets plant response rating (sugar beet; [2]): 2
Plant response rating, Sugarbeets (sugar beet; [3]): 0
Plant response rating, Sugarbeets (sugar beet; [4]): 0
Sugarbeets plant response rating (sugar beet; [5]): 0
Sugarbeets plant response rating (sugar beet; [6]): 0
Plant response rating, Sugarbeets (sugar beet; [8]): 0
Wild oats plant response rating (wild oat; [1]): 0
Wild oats plant response rating (wild oat; [2]): 3
Plant response rating, Wild oats (wild oat; [3]): 0
Plant response rating, Wild oats (wild oat; [4]): 0
Wild oats plant response rating (wild oat; [5]): 0
Wild oats plant response rating (wild oat; [6]): 0
Plant response rating, Wild oats (wild oat; [8]): 0
Plant response rating, Nutsedge (purple nutsedge; Rate 125 g/ha, scale 0 to 10 (0 no effect, 10 complete control)): 0
Plant response rating, Nutsedge (purple nutsedge; Rate 250 g/ha, scale of 0 to 10 where 0 is no effect and 10 is complete control): 0
Nutsedge plant response rating (purple nutsedge; Rate 500 g/ha, scale 0 (no effect) to 10 (complete control)): 0
Plant response rating, Nutsedge (purple nutsedge; Rate 1000 g/ha, scale 0 to 10 (0 no effect, 10 complete control)): 0
Rice plant response rating (rice; [2]): 0
Rice plant response rating (rice; [9]): 0
Rice plant response rating (rice; [10]): 0
Rice plant response rating (rice; [11]): 0
Plant response rating, Rice (rice; [12]): 0
Rice plant response rating (rice; [13]): 0
Rice plant response rating (rice; [14]): 0
Rice plant response rating (rice; [15]): 0
S. Flatsedge plant response rating (smallflower flatsedge; [2]): 0
S. Flatsedge plant response rating (smallflower flatsedge; Pre-emergence, Rate 1000 g/ha, scale 0 to 10 (0 no effect, 10 complete control)): 0
S. Flatsedge plant response rating (smallflower flatsedge; [9]): 0
S. Flatsedge plant response rating (smallflower flatsedge; [10]): 0
Plant response rating, S. Flatsedge (smallflower flatsedge; [12]): 0
S. Flatsedge plant response rating (smallflower flatsedge; [14]): 0
S. Flatsedge plant response rating (smallflower flatsedge; [15]): 0
Ducksalad plant response rating (duck salad; [2]): 0
Ducksalad plant response rating (duck salad; [9]): 0
Ducksalad plant response rating (duck salad; [10]): 0
Ducksalad plant response rating (duck salad; [11]): 0
Plant response rating, Ducksalad (duck salad; [12]): 0
Ducksalad plant response rating (duck salad; [13]): 0
Ducksalad plant response rating (duck salad; [14]): 0
Ducksalad plant response rating (duck salad; [15]): 0

From US6737383B1, “Herbicidal oxadiazolidines” (priority 1999, dated 2004)
